# From ChEMBL document CHEMBL3739349, “Cytotoxic Clerodane Diterpenoids from the Leaves of Casearia grewiifolia” (J Nat Prod, 2015)
# Tests used:
# KB = test: Cytotoxicity against human KB cells assessed as growth inhibition after 72 hrs by neutral red staining based colorimetric assay; type: functional, cell-based
# HepG2 = test: Cytotoxicity against human HepG2 cells assessed as growth inhibition after 72 hrs by neutral red staining based colorimetric assay; type: functional, cell-based; details: HepG2, 72 h
# Lu1 = test: Cytotoxicity against human Lu1 cells assessed as growth inhibition after 72 hrs by neutral red staining based colorimetric assay; type: functional, cell-based; details: Lu1, 72 h
# [1] = Cytotoxicity against mouse NIH/3T3 cells assessed as growth inhibition after 72 hrs by neutral red staining based colorimetric assay; type: cell-based; details: NIH3T3, 72 h
# MCF7 = test: Cytotoxicity against human MCF7 cells assessed as growth inhibition after 72 hrs by neutral red staining based colorimetric assay; type: functional, cell-based; details: MCF7, 72 h
# [2] = Cytotoxicity against mouse NIH/3T3 cells assessed as growth inhibition at 100 uM after 72 hrs by neutral red staining based colorimetric assay; type: cell-based; details: nih3t3, 72 h
Compound,IC50 (KB) [nM],IC50 (HepG2) [nM],IC50 (Lu1) [nM],IC50 [1] [nM],IC50 (MCF7) [nM],Activity [2]
C=CC(=C)CC[C@]1(C)[C@H](C)C[C@H](O)[C@@]23C(=C[C@H](OC(=O)CCC)C[C@@H]12)[C@@H](OC(C)=O)O[C@H]3OC(C)=O [CASEANIGRESCEN D],500,300,900,300,800,
Cc1c2ccncc2c(C)c2c1[nH]c1ccccc12 [ELLIPTECINE],1400,1500,1200,1300,900,
C=CC(=C)CC[C@]1(C)[C@H](C)[C@@H](OC(=O)/C=C/c2ccc(O)cc2)[C@H](O)[C@@]23C(=C[C@H](OC(=O)CCC)C[C@@H]12)[C@H](OC)O[C@H]3OC,6200,7000,> 10000,> 10000,> 10000,Non-toxic
C=CC(=C)CC[C@]1(C)[C@H](C)[C@@H](OC(=O)/C=C/c2ccc(O)cc2)[C@H](O)[C@@]23C(=C[C@H](OC(=O)CC(C)C)C[C@@H]12)[C@H](OC)O[C@H]3OC(C)=O,> 10000,> 10000,> 10000,> 10000,> 10000,
